{"source": "patent US20240327393A1", "about": "(SIRONAX LTD., priority 2021, published 2024)", "data": [{"test_system": "HT-1080 (ATCC, CCL-121) cells", "assay": "HT-1080 cell viability assay with ferroptosis inducer RSL3 (Cell Titer-Glo)", "type": "cell-based", "details": "Homo sapiens; HT-1080 cells treated with RSL3; 3-fold, 10-point dilution, 1.1 μM highest concentration; Table 2; read-out: EC50 (nM), ferroptosis inhibitory activity", "outline": "(§1)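 HT-1080 cells (6000 per well) were cultured overnight at 37 °C, then co-treated with RSL3 and compound in a 3-fold, 10-point series topping at 1.1 μM. Viability was read by CellTiter-Glo luminescence and normalized to untreated controls. EC50 came from a sigmoidal non-linear regression fit.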", "units": {"EC50": "nM"}, "values": [{"smiles": "CN1Cc2ccc(Nc3ccc(N4CCC(C(F)(F)F)CC4)c(F)c3)cc2C1=O", "note": "[Compound 169, 6-((3-fluoro-4-(4-(trifluoromethyl)piperidin-1-yl)phenyl)amino)-2-methylisoindolin-1-one]", "EC50": "0.1 to 100"}, {"smiles": "FC(F)(F)C1CCN(c2ccc(Nc3ccc4occc4c3)cc2)CC1", "note": "[Compound 337, N-(4-(4-(trifluoromethyl)piperidin-1-yl)phenyl)benzofuran-5-amine]", "EC50": "0.1 to 100"}, {"smiles": "CN1Cc2cc(Nc3ccc(N4CCC(F)(F)CC4)cc3)ccc2C1=O", "note": "[Compound 172, 5-((4-(4,4-difluoropiperidin-1-yl)phenyl)amino)-2-methylisoindolin-1-one]", "EC50": "0.1 to 100"}, {"smiles": "Cn1c(=O)c(=O)n(C)c2cc(Nc3ccc(N4CCC(C(F)(F)F)CC4)cc3)ccc21", "note": "[Compound 110, 1,4-dimethyl-6-((4-(4-(trifluoromethyl)piperidin-1-yl)phenyl)amino)-1,4-dihydroquinoxaline-2,3-dione]", "EC50": "0.1 to 100"}, {"smiles": "COCCn1c(=O)n(C)c2ccc(Nc3ccc(N4CCC(C(F)(F)F)CC4)cc3)cc21", "note": "[Compound 334, 3-(2-methoxyethyl)-1-methyl-5-((4-(4-(trifluoromethyl)piperidin-1-yl)phenyl)amino)-1,3-dihydro-2H-benzo[d]imidazol-2-one]", "EC50": "0.1 to 100"}, {"smiles": "Cn1c(=O)n(CCN2CCCC2=O)c2ccc(Nc3ccc(N4CCC(C(F)(F)F)CC4)cc3)cc21", "note": "[Compound 367, 3-methyl-1-(2-(2-oxopyrrolidin-1-yl)ethyl)-5-((4-(4-(trifluoromethyl)piperidin-1-yl)phenyl)amino)-1,3-dihydro-2H-benzo[d]imidazol-2-one]", "EC50": "0.1 to 100"}, {"smiles": "CN1C(=O)COc2cc(Nc3cnc(N4CCC(C(F)(F)F)CC4)c(F)c3)ccc21", "note": "[Compound 27, 7-((5-fluoro-6-(4-(trifluoromethyl)piperidin-1-yl)pyridin-3-yl)amino)-4-methyl-2H-benzo[b][1,4]oxazin-3(4H)-one]", "EC50": "0.1 to 100"}, {"smiles": "CCC1Oc2cc(Nc3ccc(N4CCC(C(F)(F)F)CC4)cc3)ccc2N(C)C1=O", "note": "(stereo not drawn) [Compound 68, 2-ethyl-4-methyl-7-((4-(4-(trifluoromethyl)piperidin-1-yl)phenyl)amino)-2H-benzo[b][1,4]oxazin-3(4H)-one]", "EC50": "0.1 to 100"}, {"smiles": "Cn1c(=O)[nH]c2cc(Nc3ccc(N4CCC(C(F)(F)F)CC4)cc3)ccc21", "note": "[Compound 363, 1-methyl-5-((4-(4-(trifluoromethyl)piperidin-1-yl)phenyl)amino)-1,3-dihydro-2H-benzo[d]imidazol-2-one]", "EC50": "0.1 to 100"}, {"smiles": "CN1C(=O)COc2cc(Nc3ccc(N4CCC(C(F)(F)F)CC4)cc3)cc(F)c21", "note": "[Compound 88, 5-fluoro-4-methyl-7-((4-(4-(trifluoromethyl)piperidin-1-yl)phenyl)amino)-2H-benzo[b][1,4]oxazin-3(4H)-one]", "EC50": "0.1 to 100"}, {"smiles": "CN1C(=O)COc2cc(Nc3ccc(N4CC5CCC(C4)O5)c(F)c3)ccc21", "note": "[Compound 89, 7-((4-(8-oxa-3-azabicyclo[3.2.1]octan-3-yl)-3-fluorophenyl)amino)-4-methyl-2H-benzo[b][1,4]oxazin-3(4H)-one]", "EC50": "0.1 to 100"}, {"smiles": "CN1C(=O)COc2cc(Nc3ccc(N4CCC(C(F)(F)F)CC4)nc3)ccc21", "note": "[Compound 17, 4-methyl-7-((6-(4-(trifluoromethyl)piperidin-1-yl)pyridin-3-yl)amino)-2H-benzo[b][1,4]oxazin-3(4H)-one]", "EC50": "0.1 to 100"}, {"smiles": "CC1CN(c2c(F)cc(Nc3ccc4c(c3)OCC(=O)N4)cc2F)CC(C)O1", "note": "(stereo not drawn) [Compound 159, 7-((4-(2,6-dimethylmorpholino)-3,5-difluorophenyl)amino)-2H-benzo[b][1,4]oxazin-3(4H)-one]", "EC50": "0.1 to 100"}, {"smiles": "CCN1Cc2ccc(Nc3cnc(N4CCCCC4)c(F)c3)cc2C1", "note": "[Compound 195, 2-ethyl-N-(5-fluoro-6-(piperidin-1-yl)pyridin-3-yl)isoindolin-5-amine]", "EC50": "0.1 to 100"}, {"smiles": "CN1C(=O)COc2cc(Nc3ccc(N4CCC(CF)CC4)cc3)ccc21", "note": "[Compound 23, 7-((4-(4-(fluoromethyl)piperidin-1-yl)phenyl)amino)-4-methyl-2H-benz o[b][1,4]oxazin-3(4H)-one]", "EC50": "0.1 to 100"}, {"smiles": "Cc1cc(Nc2ccc3c(c2)OCC(=O)N3C)ccc1N1CCC(C(F)(F)F)CC1", "note": "[Compound 86, 4-methyl-7-((3-methyl-4-(4-(trifluoromethyl)piperidin-1-yl)phenyl)amino)-2H-benzo[b][1,4]oxazin-3(4H)-one]", "EC50": "0.1 to 100"}, {"smiles": "Cc1cc(N2CCC(C)CC2)ccc1Nc1ccc2c(c1)n(C)c(=O)n2C", "note": "[Compound 280, 1,3-dimethyl-5-((2-methyl-4-(4-methylpiperidin-1-yl)phenyl)amino)-1,3-dihydro-2H-benzo[d]imidazol-2-one]", "EC50": "0.1 to 100"}, {"smiles": "Cc1nc(N2CCC(C(F)(F)F)CC2)ccc1Nc1ccc2c(c1)n(C)c(=O)n2C", "note": "[Compound 373, 1,3-dimethyl-5-((2-methyl-6-(4-(trifluoromethyl)piperidin-1-yl)pyridin-3-yl)amino)-1,3-dihydro-2H-benzo[d]imidazol-2-one]", "EC50": "0.1 to 100"}, {"smiles": "Cn1c(=O)oc2ccc(Nc3ccc(N4CCC(CF)CC4)cc3)cc21", "note": "[Compound 391, 5-((4-(4-(fluoromethyl)piperidin-1-yl)phenyl)amino)-3-methylbenzo[d]oxazol-2(3H)-one]", "EC50": "0.1 to 100"}, {"smiles": "Cc1cc(N2CCC(C(F)(F)F)CC2)ccc1Nc1ccc2c(c1)CNC2", "note": "[Compound 410, N-(2-methyl-4-(4-(trifluoromethyl)piperidin-1-yl)phenyl) isoindolin-5-amine]", "EC50": "0.1 to 100"}, {"smiles": "Cn1cnc(N2Cc3cc(Nc4ccc(N5CCC(C(F)(F)F)CC5)cc4)ccc3C2=O)c1", "note": "[Compound 206, 2-(1-methyl-1H-imidazol-4-yl)-5-((4-(4-(trifluoromethyl)piperidin-1-yl)phenyl)amino)isoindolin-1-one]", "EC50": "0.1 to 100"}, {"smiles": "CN1C(=O)COc2cc(Nc3ccc4cc(N5CCC(C(F)(F)F)CC5)ccc4c3)ccc21", "note": "[Compound 72, 4-methyl-7-((6-(4-(trifluoromethyl)piperidin-1-yl)naphthalen-2-yl)amino)-2H-benzo[b][1,4]oxazin-3(4H)-one]", "EC50": "0.1 to 100"}, {"smiles": "CC(C)(C)C(=O)N1Cc2ccc(Nc3ccc(N4CCC(C(F)(F)F)CC4)cc3)cc2C1", "note": "[Compound 181, 2,2-dimethyl-1-(5-((4-(4-(trifluoromethyl)piperidin-1-yl)phenyl)amino)isoindolin-2-yl)propan-1-one]", "EC50": "0.1 to 100"}, {"smiles": "O=C1COc2cc(Nc3cc(F)c(N4CCC(C(F)(F)F)CC4)c(F)c3)ccc2N1", "note": "[Compound 136, 7-((3,5-difluoro-4-(4-(trifluoromethyl)piperidin-1-yl)phenyl)amino)-2H-benzo[b][1,4]oxazin-3(4H)-one]", "EC50": "0.1 to 100"}, {"smiles": "CC1CCCCN1c1ccc(Nc2ccc3c(c2)n(C)c(=O)n3C)cc1", "note": "(stereo not drawn) [Compound 368, 1,3-dimethyl-5-((4-(2-methylpiperidin-1-yl)phenyl)amino)-1,3-dihydro-2H-benzo[d]imidazol-2-one]", "EC50": "0.1 to 100"}]}, {"test_system": "HT-1080 (ATCC, CCL-121) cells", "assay": "HT-1080 cell viability assay with ferroptosis inducer RSL3 (Cell Titer-Glo)", "type": "cell-based", "details": "Homo sapiens; HT-1080 cells treated with RSL3; 3-fold, 10-point dilution, 1.1 μM highest concentration; Table 3; read-out: EC50 (nM), ferroptosis inhibitory activity", "outline": "as §1", "units": {"EC50": "nM"}, "values": [{"smiles": "Cc1cc(N2CCC(F)(F)CC2)ccc1Nc1ccc2c(c1)OCCC(=O)N2", "note": "[Compound 629, 8-((4-(4,4-difluoropiperidin-1-yl)-2-methylphenyl)amino)-2,3-dihydrobenzo[b][1,4]oxazepin-4(5H)-one]", "EC50": "0.1 to 100"}, {"smiles": "Cc1cc(N2CCC(C(F)(F)F)CC2)ccc1Nc1ccc2c(c1)OC(CO)C(=O)N2C", "note": "(stereo not drawn) [Compound 570, 2-(hydroxymethyl)-4-methyl-7-((2-methyl-4-(4-(trifluoromethyl)piperidin-1-yl)phenyl)amino)-2H-benzo[b][1,4]oxazin-3(4H)-one]", "EC50": "0.1 to 100"}, {"smiles": "Cc1cc(N2CC(C)OC(C)C2)ccc1Nc1ccc2c(c1)CCNC2", "note": "(stereo not drawn) [Compound 528, N-(4-(2,6-dimethylmorpholino)-2-methylphenyl)-1,2,3,4-tetrahydroisoquinolin-6-amine]", "EC50": "0.1 to 100"}, {"smiles": "Cc1cc(N2CCN(CC(F)(F)F)[C@@H](C)C2)ccc1Nc1ccc2c(c1)OCC(=O)N2", "note": "[Compound 580, (S)-7-((2-methyl-4-(3-methyl-4-(2,2,2-trifluoroethyl)piperazin-1-yl)phenyl)amino)-2H-benzo[b][1,4]oxazin-3(4H)-one]", "EC50": "0.1 to 100"}, {"smiles": "Cc1c(Nc2ccc3c(c2)OCC(=O)N3C)ccc(N2CCC(C(F)(F)F)CC2)c1C#N", "note": "[Compound 492, 2-methyl-3-((4-methyl-3-oxo-3,4-dihydro-2H-benzo[b][1,4]oxazin-7-yl)amino)-6-(4-(trifluoromethyl)piperidin-1-yl)benzonitrile]", "EC50": "0.1 to 100"}, {"smiles": "CCN(CC)c1ccc(Nc2ccc3c(c2)OCC(=O)N3)c(C)c1", "note": "[Compound 501, 7-((4-(diethylamino)-2-methylphenyl)amino)-2H-benzo[b][1,4]oxazin-3(4H)-one]", "EC50": "0.1 to 100"}, {"smiles": "COC(C)(C)C1CCN(c2ccc(Nc3ccc4c(c3)OCC(=O)N4)cc2)CC1", "note": "[Compound 560, 7-((4-(4-(2-methoxypropan-2-yl)piperidin-1-yl)phenyl)amino)-2H-benzo[b][1,4]oxazin-3(4H)-one]", "EC50": "0.1 to 100"}, {"smiles": "Cc1cc(N2CC(F)C2)ccc1Nc1ccc2c(c1)OCCC(=O)N2", "note": "[Compound 610, 8-((4-(3-fluoroazetidin-1-yl)-2-methylphenyl)amino)-2,3-dihydrobenzo[b][1,4]oxazepin-4(5H)-one]", "EC50": "0.1 to 100"}, {"smiles": "Cc1cc(N2CCC(C(F)(F)F)CC2)ccc1Nc1ccc2c(c1)COC(=O)N2", "note": "[Compound 539, 6-((2-methyl-4-(4-(trifluoromethyl)piperidin-1-yl)phenyl)amino)-1,4-dihydro-2H-benzo[d][1,3]oxazin-2-one]", "EC50": "0.1 to 100"}, {"smiles": "Cc1cc(N2CCC(C)CC2)ccc1Nc1cnc2c(c1)OCC(=O)N2", "note": "[Compound 575, 7-((2-methyl-4-(4-methylpiperidin-1-yl)phenyl)amino)-2H-pyrido[3,2-b][1,4]oxazin-3(4H)-one]", "EC50": "0.1 to 100"}, {"smiles": "C[C@@H]1C[C@H](c2ccc(Nc3ccc4c(c3)OCC(=O)N4)cc2)CCO1", "note": "[Compound 484, 7-((4-((2R,4R)-2-methyltetrahydro-2H-pyran-4-yl)phenyl)amino)-2H-benzo[b][1,4]oxazin-3(4H)-one]", "EC50": "0.1 to 100"}]}]}
